Laboratory results reported in patent US7067622B2, “Method of the solid phase synthesis of pyrrole-imidazole polyamide” (Japan Science and Technology Agency, priority 2001, dated 2006).

Test system: DNA fragment of 450 mer
Test: DNA alkylation experiment analysed by polyacrylamide gel electrophoresis
Assay type: biochemical
Procedure: (1) An DNA alkylation experiment was conducted using the above-synthesized Ac-Im-Py-β-ala-CO-Du86.
(2) A similar experiment was conducted by using Im-Im-β-ala-Py-Py-β-ala-CO-Du86. In this case, it was clarified that two imidazole portions recognized guanine in a DNA to cause a sequence-specific DNA alkylation.
(3) A similar experiment was conducted by using Ac-Im-Py-Py-γ-butyl-Py-Py-β-ala-Du86. A pyrrole-imidazole polyamide portion of this compound has a hairpin structure, and one molecule of this compound can recognize both of double strands of a DNA. Though it is known that a Py-Py pair selectively recognizes AT or TA, a Im-Py pair selectively recognizes GC, and a Py-Im pair selectively recognizes CG when the hairpin compound is combined with a DNA in accordance with the Dervan's rule, this compound includes a new pair of β-alanine pair-Im for the molecular recognition. Therefore, a new molecular recognition rule can be discovered using this compound. Accordingly, a DNA alkylation experiment was conducted to confirm the possibility. Results of the experiment are shown in FIG. 3 (DNA: pUC18III 70 nM; Reagent Concentration: 10 nM to 500 nM, 5 samples; Reaction Conditions: sodium phosphate buffer solution (1.46 mM), 37° C., 8 hours).

[1] = DNA fragment of 450 mer, polyacrylamide gel electrophoresis (FIG. 1, FIG. 2)

Row | Molecule | DNA sequence recognized and base alkylated (sequence-specific DNA alkylation) (DNA: pUC18III 70 nM, reagent 10 nM to 500 nM, sodium phosphate buffer solution (1.46 mM), 37° C., 8 hours (FIG. 3)) | DNA sequence recognized and base alkylated (sequence-specific DNA alkylation) [1]
1 | COC(=O)c1c(C)[nH]c2c1[C@]13C[C@H]1CN(C(=O)CCNC(=O)c1cc(NC(=O)c4cc(NC(=O)CCCNC(=O)c5cc(NC(=O)c6cc(NC(=O)c7cc(NC(C)=O)cn7C)cn6C)cn5C)cn4C)cn1C)C3=CC2=O [Ac-Im-Py-Py-γ-butyl-Py-Py-β-ala-Du86, Ac-Im-Py-Py-γ-butyl-Py-Py-β-ala-CO-Du86] | recognizes 5′-(A/T)(A/T)(A/T)C(A/G)-3′ portion to selectively alkylates adenine of the 3′-end | –
2 | COC(=O)c1c(C)[nH]c2c1C13CC1CN(C(=O)CCNC(=O)c1cc(NC(=O)c4nc(NC(C)=O)cn4C)cn1C)C3=CC2=O (stereo not drawn) [Ac-Im-Py-β-ala-CO-Du86] | – | recognized 5′-TAAA-3′ and alkylated adenine of 3′-end
3 | Im-Im-β-ala-Py-Py-β-ala-CO-Du86 | – | recognized 5′-GGAGAAA-3′ and alkylated adenine of 3′-end
